Assays:
Assay in all cases: Human liver microsomal cytochrome P450 cocktail inhibition assay, Protocol C
[1] = biological target: Cytochrome P450 2D6 (Homo sapiens, UniProt P10635); details: 2D6_Dextro pIC50, human liver microsomes 0.2 mg/ml; probe dextromethorphan 3 microM
Experimental: (§1) Probe substrates and final assay concentrations with the appropriate internal standard are outlined in Table 6a.
(§2) Assays were performed in 0.1 M phosphate buffer (pH 7.4), containing 0.2 mg/ml human liver microsomes (BD Gentest) and a probe substrate mix consisting of: phenacetin, tolbutamide, S-mephenyloin, dextromethorphan, amodiaquine and midazolam (Table 6a) and a range of test compound concentrations (0 to 30 micromolar) in a total volume of 100 microliters. After a 10 min pre-incubation at 37° C., the reaction was started with addition of NADPH at a final concentration of 1.0 mM. […] The samples are centrifuged for 10 min at 4° C. at 4000 rpm and 60 microliters supernatant is diluted with 180 microliters water. Each sample is injected onto a UPLC/MS system for the simultaneous measurement of the probe substrate metabolites and their associated deuterated internal standards. Percentage inhibition is calculated according to: %-inhibition=(1−Ri/R)*100, whereby Ri and R are the metabolite to internal standard peak area ratios in the presence and absence of inhibitor respectively.
(§3) Percentage inhibition data are plotted against the Log transformed test compound concentration and after curve fitting the IC50-value is determined.

[2] = biological target: T1, Cytochrome P450 1A2 (Homo sapiens, UniProt P05177)
T1 sequence (P05177 1-516): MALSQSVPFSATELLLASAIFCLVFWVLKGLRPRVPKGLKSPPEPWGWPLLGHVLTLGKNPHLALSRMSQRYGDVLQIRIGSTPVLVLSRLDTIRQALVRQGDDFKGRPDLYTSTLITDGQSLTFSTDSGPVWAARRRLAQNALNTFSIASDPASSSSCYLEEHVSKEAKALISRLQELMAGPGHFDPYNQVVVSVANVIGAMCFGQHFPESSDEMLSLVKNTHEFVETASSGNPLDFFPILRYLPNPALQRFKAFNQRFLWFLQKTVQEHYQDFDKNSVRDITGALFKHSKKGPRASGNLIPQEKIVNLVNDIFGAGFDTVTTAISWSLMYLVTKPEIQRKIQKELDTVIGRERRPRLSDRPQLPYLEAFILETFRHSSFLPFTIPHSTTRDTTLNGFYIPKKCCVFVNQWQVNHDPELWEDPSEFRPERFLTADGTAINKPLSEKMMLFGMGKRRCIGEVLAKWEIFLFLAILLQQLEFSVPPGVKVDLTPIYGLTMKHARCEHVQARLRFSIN
Experimental: as §1, §2, §3

[3] = biological target: Cytochrome P450 2C9 (Homo sapiens, UniProt P11712); details: 2C9 Tolbut pIC50, human liver microsomes 0.2 mg/ml; probe tolbutamide 100 microM
Experimental: as §1, §2, §3

[4] = biological target: Cytochrome P450 2C19 (Homo sapiens, UniProt P33261); details: 2C19_S-Meph pIC50, human liver microsomes 0.2 mg/ml; probe S-mephenytoin 30 microM
Experimental: as §1, §2, §3

[5] = biological target: T2, Cytochrome P450 2C8 (Homo sapiens, UniProt P10632); format: in vitro ADME; details: human liver microsomes 0.2 mg/ml; probe amodiaquine 2 microM; read-out: 2C8_Amod pIC50 (converted)
T2 construct: tissue BD Gentest; host or cells: human liver microsomes
T2 sequence (P10632 1-490): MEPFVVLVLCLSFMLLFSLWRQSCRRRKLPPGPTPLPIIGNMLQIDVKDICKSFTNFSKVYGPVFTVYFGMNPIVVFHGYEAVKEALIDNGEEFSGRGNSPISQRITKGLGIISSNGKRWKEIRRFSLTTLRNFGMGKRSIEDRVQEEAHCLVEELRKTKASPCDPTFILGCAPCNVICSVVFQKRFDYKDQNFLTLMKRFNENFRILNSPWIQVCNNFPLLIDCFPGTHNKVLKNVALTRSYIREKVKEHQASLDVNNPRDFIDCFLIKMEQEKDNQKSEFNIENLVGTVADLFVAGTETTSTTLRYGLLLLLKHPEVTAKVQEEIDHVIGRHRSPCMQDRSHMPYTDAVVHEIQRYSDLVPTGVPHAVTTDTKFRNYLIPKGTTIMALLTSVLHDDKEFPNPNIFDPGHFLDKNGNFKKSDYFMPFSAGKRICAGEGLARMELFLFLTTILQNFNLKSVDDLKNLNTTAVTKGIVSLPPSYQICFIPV
Experimental: as §1, §2, §3

Sequence of Cytochrome P450 2C19 (P33261 whole entry): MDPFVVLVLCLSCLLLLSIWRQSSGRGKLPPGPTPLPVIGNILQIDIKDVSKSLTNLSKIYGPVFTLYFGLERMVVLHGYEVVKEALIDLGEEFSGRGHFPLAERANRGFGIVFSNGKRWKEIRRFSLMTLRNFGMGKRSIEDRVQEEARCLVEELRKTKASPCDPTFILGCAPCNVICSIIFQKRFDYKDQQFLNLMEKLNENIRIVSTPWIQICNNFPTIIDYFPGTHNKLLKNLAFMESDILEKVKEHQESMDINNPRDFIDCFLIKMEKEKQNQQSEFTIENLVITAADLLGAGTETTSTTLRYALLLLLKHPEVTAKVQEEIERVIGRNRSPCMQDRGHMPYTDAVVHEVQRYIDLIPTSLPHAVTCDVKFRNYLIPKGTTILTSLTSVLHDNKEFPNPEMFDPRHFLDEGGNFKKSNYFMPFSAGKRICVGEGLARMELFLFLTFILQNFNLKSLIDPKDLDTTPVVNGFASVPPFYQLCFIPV
Sequence of Cytochrome P450 2C9 (P11712 whole entry): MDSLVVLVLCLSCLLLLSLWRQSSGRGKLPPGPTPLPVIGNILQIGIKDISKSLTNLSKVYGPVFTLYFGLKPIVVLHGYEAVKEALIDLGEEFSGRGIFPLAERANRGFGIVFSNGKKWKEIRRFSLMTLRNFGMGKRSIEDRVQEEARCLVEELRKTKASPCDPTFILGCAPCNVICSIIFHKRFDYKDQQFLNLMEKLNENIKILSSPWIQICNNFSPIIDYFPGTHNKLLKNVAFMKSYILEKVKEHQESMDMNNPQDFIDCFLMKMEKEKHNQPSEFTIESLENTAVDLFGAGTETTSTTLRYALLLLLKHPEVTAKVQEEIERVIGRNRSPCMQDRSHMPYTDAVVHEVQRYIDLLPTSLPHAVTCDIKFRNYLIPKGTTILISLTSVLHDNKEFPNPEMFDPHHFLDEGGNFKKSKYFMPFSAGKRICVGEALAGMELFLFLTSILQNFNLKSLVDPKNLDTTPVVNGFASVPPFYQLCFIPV
Sequence of Cytochrome P450 2D6 (P10635 whole entry): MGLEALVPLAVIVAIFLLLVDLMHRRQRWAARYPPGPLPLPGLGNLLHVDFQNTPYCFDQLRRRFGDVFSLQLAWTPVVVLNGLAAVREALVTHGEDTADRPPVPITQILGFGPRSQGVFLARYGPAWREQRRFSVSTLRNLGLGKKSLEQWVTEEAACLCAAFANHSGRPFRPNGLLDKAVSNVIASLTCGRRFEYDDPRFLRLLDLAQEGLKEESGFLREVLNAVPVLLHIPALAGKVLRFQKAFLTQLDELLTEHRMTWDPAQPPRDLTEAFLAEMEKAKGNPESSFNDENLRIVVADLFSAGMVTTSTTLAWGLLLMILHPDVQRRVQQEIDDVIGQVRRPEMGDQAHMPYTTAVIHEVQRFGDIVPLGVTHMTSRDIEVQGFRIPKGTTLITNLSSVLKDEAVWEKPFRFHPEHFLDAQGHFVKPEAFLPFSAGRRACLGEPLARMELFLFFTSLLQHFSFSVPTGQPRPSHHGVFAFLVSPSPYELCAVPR

Row | SMILES | IC50 [1] [µM] | IC50 [2] [µM] | IC50 [3] [µM] | IC50 [4] [µM] | IC50 [5] [µM]
1 | CCc1ccc(C2=NCc3c(Cl)cccc3-n3cccc32)cc1 [drawing 92] | > 10 | > 10 | > 10 | 1.58 | > 10
2 | CS(=O)(=O)c1ccc(C2=NCc3c(Cl)cccc3-n3cccc32)cc1 [drawing 93] | 7.59 | > 10 | > 10 | > 10 | > 10
3 | CC(=O)c1ccc(C2NCc3c(Cl)cccc3-n3cccc32)cc1 (stereo not drawn) [drawing 94] | 3.16 | > 10 | 3.16 | 3.16 | 
4 | CC(O)c1ccc(C2NCc3c(Cl)cccc3-n3cccc32)cc1 (stereo not drawn) [drawing 97] | > 10 | > 10 | > 10 | 5.13 | > 10
5 | CC(=O)c1cccc(C2NCc3c(Cl)cccc3-n3cccc32)c1 (stereo not drawn) [drawing 99] | 3.16 | > 10 | 1.58 | 0.158 | 7.94
